Data on five compounds can be found in patent US20110110890A1, “Novel Inhibitors of Hepatitis C Virus Replication” (INTERMUNE, INC., priority 2009, published 2011).

One assay has as its system HCV Replicon. The assay can be described thus: HCV Replicon inhibition. Type of assay: cell-based. The following applies: Hepatitis C virus.
In another assay the target is T1, HCV NS5B polymerase (Hepatitis C virus genotype 1a, UniProt P27958).
T1 construct: pre-incubated with the RNA template and NS5B polymerase protein; purchased Replizyme
T1 sequence (P27958 2421-3011): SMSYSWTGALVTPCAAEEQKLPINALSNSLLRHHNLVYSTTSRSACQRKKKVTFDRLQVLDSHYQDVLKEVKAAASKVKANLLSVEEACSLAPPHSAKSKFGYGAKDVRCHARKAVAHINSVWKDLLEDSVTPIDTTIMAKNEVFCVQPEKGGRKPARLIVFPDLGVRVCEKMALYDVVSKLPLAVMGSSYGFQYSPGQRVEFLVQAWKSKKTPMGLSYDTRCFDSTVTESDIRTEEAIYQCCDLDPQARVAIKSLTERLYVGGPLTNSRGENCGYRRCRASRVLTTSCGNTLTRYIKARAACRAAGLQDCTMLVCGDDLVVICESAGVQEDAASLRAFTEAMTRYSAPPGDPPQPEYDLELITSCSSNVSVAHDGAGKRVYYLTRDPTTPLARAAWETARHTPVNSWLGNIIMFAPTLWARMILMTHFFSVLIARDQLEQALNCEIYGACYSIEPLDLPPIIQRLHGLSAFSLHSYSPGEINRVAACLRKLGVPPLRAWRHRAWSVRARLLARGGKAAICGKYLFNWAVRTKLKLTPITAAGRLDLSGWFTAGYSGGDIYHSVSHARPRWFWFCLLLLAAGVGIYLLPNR
The assay can be described thus: Replizyme HCV heterotemplate radioactive RNA-dependent RNA-polymerase (RdRp) assay. Type of assay: biochemical. Particulars: pre-incubated 30 minutes at 37° C., reaction 90 minutes at 37° C.; read-out: HCV NS5B inhibition EC50. Here is the method:
The compounds were tested in the Replizyme HCV heterotemplate radioactive RNA-dependent RNA-polymerase (RdRp) assay. The test compounds were pre-incubated with the RNA template and NS5B polymerase protein at 37° C. for 30 minutes. The RdRp reaction was initiated with the addition of the NTPs to the buffer-NS5B-compound mix, and was allowed to proceed for 90 minutes at 37° C. Control reactions included: no enzyme, 5% DMSO (test compound solvent), no compound/solvent, Cordycepin-TP and HCV-796 (IC50 values used as a reference inhibition). Radioactive products were collected by applying the stopped reaction to DE-81 paper, air dried prior to washing with buffer comprising NaH2PO4 and sodium pyrophosphate to remove unincorporated ^32P-GTP in the NTP mix, and rinsed with dH2O followed by 100% ethanol. The DE-81 paper was air dried, squares cut out and placed in scintillation tubes for counting.

As for `CS(=O)(=O)Nc1ccc2c(c1)S(=O)(=O)N=C(c1c(O)n3cc(F)ccc3c(Cc3cc(F)cc(F)c3)c1=O)N2` [Compound 101], the concentration giving a half-maximal response (EC50) with HCV Replicon and at HCV NS5B polymerase was less than 100 nM in each case.

In the case of `CS(=O)(=O)Nc1ccc2c(c1)S(=O)(=O)N=C(c1c(O)n3cc(F)ccc3c(Cc3ccc(F)c(F)c3)c1=O)N2` [Compound 102S], the EC50 with HCV Replicon and at HCV NS5B polymerase was less than 100 nM in each case.

Consider `CS(=O)(=O)Nc1ccc2c(c1)S(=O)(=O)N=C(c1c(O)n3cc(F)ccc3c(Cc3ccc(F)cc3)c1=O)N2` [Compound 103S], for which the EC50 with HCV Replicon and on HCV NS5B polymerase was less than 100 nM throughout.

On to `CC(C)(C)CCc1c(=O)c(C2=NS(=O)(=O)c3cc(NS(C)(=O)=O)ccc3N2)c(O)n2cc(F)ccc12` [Compound 104S], for which the 50% effective concentration (EC50) with HCV Replicon and at HCV NS5B polymerase was less than 100 nM each time.

Consider `CS(=O)(=O)Nc1ccc2c(c1)S(=O)(=O)N=C(c1c(O)n3ccccc3c(Cc3cc(F)cc(F)c3)c1=O)N2` [Compound 105S], for which the concentration for a half-maximal effect (EC50) with HCV Replicon and at HCV NS5B polymerase was less than 100 nM throughout.
